In the supplement of paper PMC11208160:

Assay: recombinant barcode read abundance after kanamycin selection (control-corrected) (log10(CPM+1)); higher = more efficient recombination; sequences stand for … in AGTGCAGAGAAAATCGGCCAGTTTTCTCTGCCTGCAGTCCGCATGCCGT…AGATTTATGCAGCGGACTGCCTTTCTCCCAAAGTGATAAACCGGACAGTATCATGGACCGGTTTTCCCGGTAATCCGTATTTGCAAGGTTGGTTTCACT; site = the 11-nt target
Procedure, shortened: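 Targets and IS621 bridge RNA target-binding loops were paired in oligos, each with a promoter, a barcode and the J23119-driven first 104 bridge RNA bases. A vector carrying the remaining 73 bp and a T7-inducible recombinase received these by Gibson cloning, and the pool was co-electroporated into E. coli with a donor plasmid. Duplicate plates contained chloramphenicol/ampicillin LB agar (control) or chloramphenicol/ampicillin/kanamycin with 0.1 mM IPTG. Recombination efficiency comes from averaged, control-corrected counts per million of recombinant-junction barcodes, reported as log10(CPM+1).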
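Further: IS621 recombinase and bridge RNA in Escherichia coli cells.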

Row | Sequence | recombinant barcode read abundance (log10)
1 | CTGTGCCCTTGGGTTCTAACCTGTTGCCT (site CTGGGCCCTAG) | 0.0673
2 | CTGTGCCCTTGGGTTCTAACCTGTTGCCT (site CTGTGCCCTAG) | 0.574
3 | CTGTTCCCTTGGGTTCTAACCTGTTGCGG (site CTGATCCCTCC) | 0.291
4 | CTGTTCCCTTGGGTTCTAACCTGTTGCGG (site CTGCTCCCTCC) | 0.797
5 | CTGTTCCCTTGGGTTCTAACCTGTTGCGG (site CTGGTCCCTCC) | 0.129
6 | CTGTTCCCTTGGGTTCTAACCTGTTGCGG (site CTGTTCCCTCC) | 1.05
7 | CTTACGGCTTGGGTTCTAACCTGTTGCCT (site CTTACAGCTAG) | 0.186
8 | CTTACGGCTTGGGTTCTAACCTGTTGCCT (site CTTACCGCTAG) | 0.196
9 | CTTACGGCTTGGGTTCTAACCTGTTGCCT (site CTTACGGCTAG) | 0.0569
10 | CTTACGGCTTGGGTTCTAACCTGTTGCCT (site CTTACTGCTAG) | 0.262
11 | CTTCATCCTTGGGTTCTAACCTGTTGCCT (site CTTCAACCTAG) | 0.0199
12 | CTTCATCCTTGGGTTCTAACCTGTTGCCT (site CTTCACCCTAG) | 0.34
13 | CTTCATCCTTGGGTTCTAACCTGTTGCCT (site CTTCAGCCTAG) | 0.0613
14 | CTTCATCCTTGGGTTCTAACCTGTTGCCT (site CTTCATCCTAG) | 0.466
15 | CTTCGGACTTGGGTTCTAACCTGTTGCTT (site CTTCGGACTAA) | 0.769
16 | CTTCGGACTTGGGTTCTAACCTGTTGCTT (site GAGTCTCCTCC) | 0.133
17 | CTTCGGGCTTGGGTTCTAACCTGTTGCAA (site CTTCGGACTTT) | 0.217
18 | CTTCGGGCTTGGGTTCTAACCTGTTGCAA (site CTTCGGGCTTT) | 0.915

Row | Sequence | recombinant barcode read abundance (log10)
19 | CTTCGTCCTTGGGTTCTAACCTGTTGCGT (site CTTCGTCCTAA) | 0.102
20 | CTTCGTCCTTGGGTTCTAACCTGTTGCGT (site CTTCGTCCTAC) | 1.59
21 | CTTCGTCCTTGGGTTCTAACCTGTTGCGT (site CTTCGTCCTAG) | 0.126
22 | CTTCGTCCTTGGGTTCTAACCTGTTGCGT (site CTTCGTCCTAT) | 0.797
23 | CTTGCGACTTGGGTTCTAACCTGTTGCTT (site CTTGCGACTAA) | 0.391
24 | CTTGCGACTTGGGTTCTAACCTGTTGCTT (site TGCATAGCTTG) | 0.0884
25 | CTTGCTCCTTGGGTTCTAACCTGTTGCAT (site AGACGGACTTG) | 0.0627
26 | CTTGCTCCTTGGGTTCTAACCTGTTGCAT (site CTTGCTCCTAT) | 0.227
27 | CTTTAGTCTTGGGTTCTAACCTGTTGCTA (site AAAGGTCCTCT) | 0.0491
28 | CTTTAGTCTTGGGTTCTAACCTGTTGCTA (site CTTTAGTCTTA) | 0.174
29 | CTTTCACCTTGGGTTCTAACCTGTTGCCT (site CTTTCACCTAG) | 0.547
30 | CTTTCACCTTGGGTTCTAACCTGTTGCCT (site CTTTCGTCTAG) | 0.0614
31 | CTTTCGCCTTGGGTTCTAACCTGTTGCCT (site CTATCGCCTAG) | 0.0688
32 | CTTTCGCCTTGGGTTCTAACCTGTTGCCT (site CTCTCGCCTAG) | 0.102
33 | CTTTCGCCTTGGGTTCTAACCTGTTGCCT (site CTGTCGCCTAG) | 0.0968
34 | CTTTCGCCTTGGGTTCTAACCTGTTGCCT (site CTTTCGCCTAG) | 0.0534
35 | CTTTGCCCTTGGGTTCTAACCTGTTGCCT (site CATTGCCCTAG) | 0.179
36 | CTTTGCCCTTGGGTTCTAACCTGTTGCCT (site CCTTGCCCTAG) | 0.0734
